According to patent US20210255193A1, “LYSINE REACTIVE PROBES AND USES THEREOF” (The Scripps Research Institute, priority 2017, published 2021):

Columns and labels:
Assay in all cases: competitive isoTOP-ABPP
Format in all cases: binding
SPAST Spastin = biological target: T1, SPAST Spastin (Homo sapiens, UniProt Q9UBP0); settings: for R value (DMSO/fragment) for probe 1 labeling: Q9UBP0_K180; for R value (DMSO/fragment) for probe 1 labeling / isoTOP-ABPP reactivity ratio at lysine Q9UBP0_K180 / isoTOP-ABPP ratio (R) at liganded lysine Q9UBP0_K180: 50 uM, in vitro; for R value (DMSO/fragment) for probe 1 labeling / isoTOP-ABPP reactivity ratio at lysine Q9UBP0_K180: 231 sol; for isoTOP-ABPP ratio (R) at liganded lysine Q9UBP0_K180: sol, 231; for isoTOP-ABPP ratio, lysine Q9UBP0_K180: 50 uM_231_sol_in vitro
T1 construct: endogenous in cells; host or cells: MDA-MB-231 lysate
T1 sequence (Q9UBP0 1-616): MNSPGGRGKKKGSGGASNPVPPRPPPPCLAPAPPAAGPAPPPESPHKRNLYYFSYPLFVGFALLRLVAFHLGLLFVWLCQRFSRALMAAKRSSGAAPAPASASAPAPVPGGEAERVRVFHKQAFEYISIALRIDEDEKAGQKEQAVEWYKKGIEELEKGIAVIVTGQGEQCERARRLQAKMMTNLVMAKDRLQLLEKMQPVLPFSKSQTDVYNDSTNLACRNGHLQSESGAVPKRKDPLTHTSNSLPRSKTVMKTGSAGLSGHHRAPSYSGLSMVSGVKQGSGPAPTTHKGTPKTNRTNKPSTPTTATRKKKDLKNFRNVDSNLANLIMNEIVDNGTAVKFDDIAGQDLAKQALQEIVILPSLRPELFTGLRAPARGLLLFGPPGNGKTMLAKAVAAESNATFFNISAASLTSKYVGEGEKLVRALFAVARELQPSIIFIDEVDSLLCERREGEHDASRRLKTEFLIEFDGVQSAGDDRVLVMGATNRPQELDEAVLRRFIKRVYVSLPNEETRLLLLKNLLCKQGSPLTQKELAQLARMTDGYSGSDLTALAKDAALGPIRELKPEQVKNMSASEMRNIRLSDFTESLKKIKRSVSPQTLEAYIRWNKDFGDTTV
Method in brief: (§1)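 Here, isoTOP-ABPP measures loss of STP-alkyne labeling at individual lysines after fragment exposure in lysate. Activated esters are dosed at 50 μM, guanidinylating agents at 100 μM; the probe follows at 0.1 mM for 1 h. R ≥4 marks a liganded lysine.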

[1] = biological target: T2, ERO1L ERO1-like protein alpha (Homo sapiens, UniProt Q96HE7); settings: for R value (DMSO/fragment) for probe 1 labeling: Q96HE7_K413; for R value (DMSO/fragment) for probe 1 labeling / isoTOP-ABPP reactivity ratio at lysine Q96HE7_K413 / isoTOP-ABPP ratio (R) at liganded lysine Q96HE7_K413: 50 uM, in vitro; for R value (DMSO/fragment) for probe 1 labeling / isoTOP-ABPP reactivity ratio at lysine Q96HE7_K413: 231 sol; for isoTOP-ABPP ratio (R) at liganded lysine Q96HE7_K413: sol, 231; for isoTOP-ABPP ratio, lysine Q96HE7_K413: 50 uM_231_sol_in vitro, possible other lysine Q86YB8_K412
T2 construct: isoTOP-ABPP experiments performed in cell lysates (in vitro); endogenous in cells; host or cells: soluble proteome of human cancer cell lines (MDA-MB-231; Ramos and Jurkat also prepared)
T2 sequence (Q96HE7 24-468): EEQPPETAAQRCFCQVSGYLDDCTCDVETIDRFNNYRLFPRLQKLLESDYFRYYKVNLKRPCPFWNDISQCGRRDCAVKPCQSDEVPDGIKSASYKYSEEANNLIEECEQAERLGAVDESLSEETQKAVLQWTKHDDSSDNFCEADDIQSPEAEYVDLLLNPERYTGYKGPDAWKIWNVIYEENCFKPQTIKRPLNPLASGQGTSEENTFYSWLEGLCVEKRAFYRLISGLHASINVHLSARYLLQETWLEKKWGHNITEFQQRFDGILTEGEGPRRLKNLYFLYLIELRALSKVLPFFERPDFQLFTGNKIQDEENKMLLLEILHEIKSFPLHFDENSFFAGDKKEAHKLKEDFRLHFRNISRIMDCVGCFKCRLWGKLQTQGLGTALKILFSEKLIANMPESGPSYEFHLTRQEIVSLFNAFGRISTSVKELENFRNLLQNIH
Method in brief: as §1

[2] = biological target: T3, ATP6V1F V-type proton ATPase subunit F (Homo sapiens, UniProt Q16864); settings: for R value (DMSO/fragment) for probe 1 labeling: Q16864_K6; for R value (DMSO/fragment) for probe 1 labeling / isoTOP-ABPP reactivity ratio at lysine Q16864_K6 / isoTOP-ABPP ratio (R) at liganded lysine Q16864_K6: 50 uM, in vitro; for R value (DMSO/fragment) for probe 1 labeling / isoTOP-ABPP reactivity ratio at lysine Q16864_K6: 231 sol; for isoTOP-ABPP ratio (R) at liganded lysine Q16864_K6: sol, 231
T3 construct: isoTOP-ABPP experiments performed in cell lysates (in vitro); endogenous in cells; host or cells: soluble proteome of human cancer cell lines (MDA-MB-231; Ramos and Jurkat also prepared)
T3 sequence (Q16864 whole entry, the tested form may be a part): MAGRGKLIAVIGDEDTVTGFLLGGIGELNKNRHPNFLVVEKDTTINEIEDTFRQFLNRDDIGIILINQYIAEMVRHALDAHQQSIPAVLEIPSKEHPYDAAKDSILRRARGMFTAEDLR
Method in brief: as §1

O=C(CCc1cn(-c2ccccc2)nc1-c1ccccc1)Oc1c(F)c(F)c(F)c(F)c1F [fragment 19, Pentafluorophenyl 3-(1,3-diphenyl-1H-pyrazol-4-yl)propanoate]
R value (DMSO/fragment) for probe 1 labeling (SPAST Spastin): 1.3
R value (DMSO/fragment) for probe 1 labeling [1]: 0.5

O=C(Oc1c(F)c(F)c(F)c(F)c1F)C(c1ccccc1)c1ccccc1 [fragment 20, Pentafluorophenyl 2,2-diphenylacetate]
R value (DMSO/fragment) for probe 1 labeling [2]: 1.1
R value (DMSO/fragment) for probe 1 labeling (SPAST Spastin): 1.2
R value (DMSO/fragment) for probe 1 labeling [1]: 0.9

O=C(Oc1c(F)c(F)c(F)c(F)c1F)c1cc(C(F)(F)F)cc(C(F)(F)F)c1 [fragment 21, Pentafluorophenyl 3,5-bis(trifluoromethyl)benzoate]
R value (DMSO/fragment) for probe 1 labeling [2]: 1.1
R value (DMSO/fragment) for probe 1 labeling (SPAST Spastin): 1.8
R value (DMSO/fragment) for probe 1 labeling [1]: 1.4

Cn1cc(CC(=O)Oc2c(F)c(F)c(F)c(F)c2F)c2ccccc21 [fragment 22, Pentafluorophenyl 2-(1-methyl-1H-indol-3-yl)acetate]
R value (DMSO/fragment) for probe 1 labeling [2]: 1.1
R value (DMSO/fragment) for probe 1 labeling (SPAST Spastin): 1.0

O=C(Oc1c(F)c(F)c(F)c(F)c1F)C1CCN(C(=O)OCc2ccccc2)CC1 [fragment 24, 1-Benzyl 4-(pentafluorophenyl) piperidine-1,4-dicarboxylate]
isoTOP-ABPP reactivity ratio at lysine Q9UBP0_K180 (SPAST Spastin): 1.1

O=C(Oc1c(F)c(F)c(F)c(F)c1F)c1ccc2ccccc2n1 [fragment 25, Pentafluorophenyl quinoline-2-carboxylate]
isoTOP-ABPP reactivity ratio at lysine Q9UBP0_K180 (SPAST Spastin): 1.2

O=C(CN1C(=O)c2ccccc2C1=O)Oc1c(F)c(F)c(F)c(F)c1F [fragment 27, Pentafluorophenyl 2-(1,3-dioxoisoindolin-2-yl)acetate]
isoTOP-ABPP reactivity ratio at lysine Q9UBP0_K180 (SPAST Spastin): 2.1

CCn1cc(C(=O)Oc2c(F)c(F)c(F)c(F)c2F)c(=O)c2ccc(C)nc21 [fragment 28, Pentafluorophenyl 1-ethyl-7-methyl-4-oxo-1,4-dihydro-1,8-naphthyridine-3-carboxylate]
isoTOP-ABPP reactivity ratio at lysine Q9UBP0_K180 (SPAST Spastin): 1.0
isoTOP-ABPP reactivity ratio at lysine Q96HE7_K413 [1]: 1.4

O=C(CCc1cn(-c2ccccc2)nc1-c1ccccc1)Oc1ccc([N+](=O)[O-])cc1[N+](=O)[O-] [fragment 29, 2,4-Dinitrophenyl 3-(1,3-diphenyl-1H-pyrazol-4-yl)propanoate]
isoTOP-ABPP reactivity ratio at lysine Q16864_K6 [2]: 0.8
isoTOP-ABPP reactivity ratio at lysine Q9UBP0_K180 (SPAST Spastin): 1.2
isoTOP-ABPP reactivity ratio at lysine Q96HE7_K413 [1]: 20.0

O=C(Oc1ccc([N+](=O)[O-])cc1[N+](=O)[O-])C(c1ccccc1)c1ccccc1 [fragment 30, 2,4-Dinitrophenyl 2,2-diphenylacetate]
isoTOP-ABPP reactivity ratio at lysine Q16864_K6 [2]: 20.0
isoTOP-ABPP reactivity ratio at lysine Q96HE7_K413 [1]: 1.2

O=C(Oc1ccc([N+](=O)[O-])cc1[N+](=O)[O-])c1cc(C(F)(F)F)cc(C(F)(F)F)c1 [fragment 31, 2,4-Dinitrophenyl 3,5-bis(trifluoromethyl)benzoate]
isoTOP-ABPP reactivity ratio at lysine Q9UBP0_K180 (SPAST Spastin): 1.1

Cn1cc(CC(=O)Oc2ccc([N+](=O)[O-])cc2[N+](=O)[O-])c2ccccc21 [fragment 32, 2,4-Dinitrophenyl 2-(1-methyl-1H-indol-3-yl)acetate]
isoTOP-ABPP reactivity ratio at lysine Q9UBP0_K180 (SPAST Spastin): 2.5
isoTOP-ABPP reactivity ratio at lysine Q96HE7_K413 [1]: 20.0

COc1cc(CCC(=O)Oc2ccc([N+](=O)[O-])cc2[N+](=O)[O-])cc(OC)c1OC [fragment 33, 2,4-Dinitrophenyl 3-(3,4,5-trimethoxyphenyl)propanoate]
isoTOP-ABPP reactivity ratio at lysine Q16864_K6 [2]: 0.8
isoTOP-ABPP reactivity ratio at lysine Q9UBP0_K180 (SPAST Spastin): 0.7

O=C(Oc1ccc([N+](=O)[O-])cc1[N+](=O)[O-])c1ccc2ccccc2n1 [fragment 35, 2,4-Dinitrophenyl quinoline-2-carboxylate]
isoTOP-ABPP ratio (R) at liganded lysine Q96HE7_K413 [1]: 2.2

O=C(CCc1coc2cc(F)ccc2c1=O)Oc1ccc([N+](=O)[O-])cc1[N+](=O)[O-] [fragment 36, 2,4-Dinitrophenyl 3-(7-fluoro-4-oxo-4H-chromen-3-yl)propanoate]
isoTOP-ABPP ratio (R) at liganded lysine Q16864_K6 [2]: 1.0

O=C(Oc1ccc([N+](=O)[O-])cc1[N+](=O)[O-])c1ccc(-c2ccccc2)cc1 [fragment 37, 2,4-Dinitrophenyl [1,1′-biphenyl]-4-carboxylate]
isoTOP-ABPP ratio (R) at liganded lysine Q16864_K6 [2]: 1.0
isoTOP-ABPP ratio (R) at liganded lysine Q9UBP0_K180 (SPAST Spastin): 1.1
isoTOP-ABPP ratio (R) at liganded lysine Q96HE7_K413 [1]: 2.4

O=C(CC12CC3CC(CC(C3)C1)C2)Oc1ccc([N+](=O)[O-])cc1[N+](=O)[O-] [fragment 38, 2,4-Dinitrophenyl 2-(adamantan-1-yl)acetate]
isoTOP-ABPP ratio (R) at liganded lysine Q16864_K6 [2]: 1.0
isoTOP-ABPP ratio (R) at liganded lysine Q9UBP0_K180 (SPAST Spastin): 2.1

O=C(Oc1ccc([N+](=O)[O-])cc1[N+](=O)[O-])c1ccc(Oc2ccccc2)cc1 [fragment 39, 2,4-Dinitrophenyl 4-phenoxybenzoate]
isoTOP-ABPP ratio (R) at liganded lysine Q16864_K6 [2]: 0.9
isoTOP-ABPP ratio (R) at liganded lysine Q9UBP0_K180 (SPAST Spastin): 1.4

O=C(Oc1ccc([N+](=O)[O-])cc1[N+](=O)[O-])c1ccccc1Nc1cccc(C(F)(F)F)c1 [fragment 40, 2,4-Dinitrophenyl 2-((3-(trifluoromethyl)phenyl)amino)benzoate]
isoTOP-ABPP ratio (R) at liganded lysine Q16864_K6 [2]: 0.9

CC(C)(C)OC(=O)NCCCC(=O)Oc1ccc([N+](=O)[O-])cc1[N+](=O)[O-] [fragment 41, 2,4-Dinitrophenyl 4-((tert-butoxycarbonyl)amino)butanoate]
isoTOP-ABPP ratio (R) at liganded lysine Q16864_K6 [2]: 1.0
isoTOP-ABPP ratio (R) at liganded lysine Q9UBP0_K180 (SPAST Spastin): 1.4
isoTOP-ABPP ratio (R) at liganded lysine Q96HE7_K413 [1]: 1.7

O=C(Oc1ccc([N+](=O)[O-])cc1[N+](=O)[O-])C(c1ccccc1)(c1ccccc1)c1ccccc1 [fragment 42, 2,4-Dinitrophenyl 2,2,2-triphenylacetate]
isoTOP-ABPP ratio (R) at liganded lysine Q16864_K6 [2]: 1.0
isoTOP-ABPP ratio (R) at liganded lysine Q9UBP0_K180 (SPAST Spastin): 1.0

CC(=O)Oc1ccc([N+](=O)[O-])cc1[N+](=O)[O-] [fragment 43, 2,4-Dinitrophenyl acetate]
isoTOP-ABPP ratio (R) at liganded lysine Q16864_K6 [2]: 20.0
isoTOP-ABPP ratio (R) at liganded lysine Q9UBP0_K180 (SPAST Spastin): 2.7
isoTOP-ABPP ratio (R) at liganded lysine Q96HE7_K413 [1]: 2.0

N#Cc1ccc(C(=O)Oc2ccc([N+](=O)[O-])cc2[N+](=O)[O-])cc1 [fragment 44, 2,4-Dinitrophenyl 4-cyanobenzoate]
isoTOP-ABPP ratio, lysine Q16864_K6 ([2]; 50 uM_231_sol_in vitro): 1.2
isoTOP-ABPP ratio, lysine Q96HE7_K413 [1]: 1.9

O=C(CCc1ccc2c(c1)OCO2)Oc1ccc([N+](=O)[O-])cc1[N+](=O)[O-] [fragment 45, 2,4-Dinitrophenyl 3-(benzo[d][1,3]dioxol-5-yl)propanoate]
isoTOP-ABPP ratio, lysine Q16864_K6 ([2]; 50 uM_231_sol_in vitro): 1.0
isoTOP-ABPP ratio, lysine Q9UBP0_K180 (SPAST Spastin): 1.7

O=C(ON1C(=O)CCC1=O)c1cc(C(F)(F)F)cc(C(F)(F)F)c1 [fragment 46, 3,5-Bis(trifluoromethyl)benzoic acid NHS ester]
isoTOP-ABPP ratio, lysine Q16864_K6 ([2]; 50 uM_231_sol_in vitro): 20.0
isoTOP-ABPP ratio, lysine Q9UBP0_K180 (SPAST Spastin): 4.4
isoTOP-ABPP ratio, lysine Q96HE7_K413 [1]: 6.5

COC(=O)NC(=NC(=O)OCC1c2ccccc2-c2ccccc21)n1cccn1 [fragment 49, N-Methoxycarbonyl-N′-9-fluorenylmethoxycarbonyl-pyrazole-1-carboxamidine]
isoTOP-ABPP ratio, lysine Q16864_K6 ([2]; 100 uM_231_sol_in vitro): 1.3
